Assay results reported in patent US6964983B2, “Compounds that modulate PPAR activity and methods for their preparation” (Warner-Lambert Company, LLC, priority 2002, dated 2005).

What was measured:
[1] = biological target: T1, hPPARβ (Homo sapiens, UniProt Q03181); experiment: Transient transfection assay in HepG2 cells, Gal4-hPPARβ chimeric receptor, luciferase reporter; assay type: cell-based; conditions: Hep G2-hBeta EC50, 24 hours incubation; read-out: EC50β nM (Group)
T1 sequence (Q03181 171-441 limits assumed): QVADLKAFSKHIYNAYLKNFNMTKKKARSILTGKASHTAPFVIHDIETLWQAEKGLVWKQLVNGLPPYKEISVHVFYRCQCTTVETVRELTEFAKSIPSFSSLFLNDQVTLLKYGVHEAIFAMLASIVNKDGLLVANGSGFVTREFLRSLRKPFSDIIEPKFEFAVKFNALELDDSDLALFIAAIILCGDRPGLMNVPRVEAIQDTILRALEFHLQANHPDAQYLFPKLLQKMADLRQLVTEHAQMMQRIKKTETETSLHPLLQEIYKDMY
Outline: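 HepG2 cells were transiently co-transfected with Gal4-hPPARα or Gal4-hPPARβ chimeras, a UAS-E1B luciferase reporter and a β-gal normalisation plasmid. After re-plating, cells were treated with compound at 50 pM–50 μM for 24 h at 37°C. EC50 values were derived from luciferase read-out normalised to β-gal.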

[2] = biological target: T2, hPPARα (Homo sapiens, UniProt Q07869); experiment: Transient transfection assay in HepG2 cells, Gal4-hPPARα chimeric receptor, luciferase reporter; assay type: cell-based; conditions: Hep G2-hAlpha EC50, 24 hours incubation; read-out: EC50α nM (Group)
T2 sequence (Q07869 200-468 limits assumed): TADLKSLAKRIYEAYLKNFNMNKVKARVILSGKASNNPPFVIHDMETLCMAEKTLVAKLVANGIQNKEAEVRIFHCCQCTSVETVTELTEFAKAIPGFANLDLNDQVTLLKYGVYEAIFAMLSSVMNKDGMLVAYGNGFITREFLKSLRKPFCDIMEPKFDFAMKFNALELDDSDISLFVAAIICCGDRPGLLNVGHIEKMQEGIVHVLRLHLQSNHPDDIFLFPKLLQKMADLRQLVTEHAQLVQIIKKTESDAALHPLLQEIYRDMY
Procedure: 1. Test A. Transient Transfections Assay using the HepG2 Hepatoma Cell Line.
HepG2 cells were transiently transfected with an expression plasmids encoding hPPARα, hPPARβ or mPPARγ chimeric receptors and a reporter containing the yeast upstream activating sequence (UAS) upstream of the viral E1B promoter controlling a luciferase reporter gene. In addition, the plasmid pRSVβ-gal was used to control for transfection efficiency. HepG2 cells were grown in DMEM supplemented with 10% FBS and 1 μM non-essential amino acid. On the first day, cells were split into 100 mm dishes at 2.5×10^6/dish and incubated overnight at 37° C./5% CO2. On the second day the cells were transiently transfected with plasmid DNA encoding a chimeric receptor, the luciferase reporter gene; and β-gal. For each 100 mm dish, 15 μg of lucifease reporter (PG5E1b) DNA, 15 μg of Gal4-PPAR chimeric receptor DNA, and 1.5 μg of β-gal plasmid DNA were mixed with 1.4 ml of opti-MEM in the tube. 28 μl of LipoFectamine-2000 reagent was added to 1.4 ml of opti-MEM in the tube, and incubate for 5 min at RT. The diluted Lipofectamine-2000 reagent was combined with the DNA mixture, and incubate for 20 min at RT. After fresh medium was added to each 100 mm dish of cells, 2.8 ml of Lipofectamine2000-DNA mixture was added dropwise to the 100 mm dish containing 14 ml of medium, and incubate 37° C. overnight. On day three cells were trypsinized off the 100 mm dishes and re-plated on 96 well plates. Cells were plated at 2.5×10^4 cells per well in 150 μl of media and 50 μl of compound diluted by media was added. The test compound added were in the range from 50 μM to 50 pM. After addition of compounds, the plates were incubated at 37° C. for 24 hours. Subsequently cells were washed with once with 100 μl of PBS, lysed, and processed for measuring luciferase and β-gal activity using Dual-Light luciferase kit from Tropix ®, according to the manufacturer's recommendations, on an EG&G Bethold MicroLumat LB96P luminometer. EC50 values were obtained using the GraphPad Prism™ program.

[3] = tested on: hApoA1 transgenic mouse; experiment: Lipid concentrations in the hApoA1 transgenic mouse; assay type: in vivo; conditions: 30 mg/kg/day, oral gavage
Procedure: B. Effect of PPAR Modulators on Lipid and Human Apoprotein A1 Concentrations in the hApoA1 Transgenic Mouse
Mice, transgenic for human apoA1, were purchased from Jackson laboratories. All animals were allowed normal chow (Ralston-Purina) and water ad libitum in temperature controlled rooms, under a 12-h light, 12-h dark cycle beginning with lights on at 6 AM. During the treatment phase of the study the mice were dosed daily between 6 and 9 AM by oral gavage using a suspension vehicle of 1.5% carboxymethylcellulose plus 0.2 percent Tween-20 (CMC/Tween) containing the specified compounds. Control animals received vehicle alone. Vehicle volume represented 0.25 percent of body weight. Under anesthesia, tail blood was obtained weekly in the morning at the indicated days of study. At termination, tissue samples (liver, intestine, fat, and muscle) were taken to study effects on genes effecting lipid metabolism. Each of the compounds of the present invention that were tested effected a significant increase in HDL over the values observed for the control animals. […] For instance, Example 4 raised HDL-c 97% and lowered triglycerides 65% relative to the control population, Example 6 raised HDL-c 24% and lowered triglycerides 59% relative to the control population, and Example 3 raised HDL-c 9% and lowered triglycerides 70% relative to the control population.

[4] = tested on: insulin resistant cynomolgus monkeys; experiment: Eight-week rising-dose treatment of insulin resistant cynomolgus monkeys; assay type: in vivo; conditions: for Leptin (plasma, ELISA): Insulin Resistant Treated; for Insulin Resistant Monkey Mean Body Weight: treated group (Txt)
Procedure: (§1) C. Effect of Compounds of the Invention on Insulin Resistant or Diabetic Cynomolgus Monkeys
Cynomolgus monkeys that were either insulin resistant or diabetic (type II) were treated for eight weeks with [5-Methoxy-2-methyl-4-(4′-trifluoromethyl-biphenyl-4-ylmethylsulfanyl)-phenoxy]-acetic acid in a rising dose fashion (0.1 to 1 mg/kg). Plasma was sampled bi-weekly and analyzed for glycemics and leptin. Body weight was also measured at various time points across the study. The diabetic monkey mean body weight data is presented in Table 2 and the insulin resistant monkey mean body weight data is presented in Table 3. […]

[5] = tested on: diabetic cynomolgus monkeys; experiment: Eight-week rising-dose treatment of diabetic (type II) cynomolgus monkeys; assay type: in vivo; conditions: for Exogenous Insulin Requirement / Leptin (plasma, ELISA): Diabetic Treated; for Diabetic Monkey Mean Body Weight: treated group (Txt)
Procedure: as §1
Cynomolgus monkeys that were either insulin resistant or diabetic (type II) were treated for eight weeks with [5-Methoxy-2-methyl-4-(4′-trifluoromethyl-biphenyl-4-ylmethylsulfanyl)-phenoxy]-acetic acid in a rising dose fashion (0.1 to 1 mg/kg). Plasma was sampled bi-weekly and analyzed for glycemics and leptin. Body weight was also measured at various time points across the study. The diabetic monkey mean body weight data is presented in Table 2 and the insulin resistant monkey mean body weight data is presented in Table 3.
The amount of exogenous insulin the diabetic monkeys received to maintain proper glucose levels, the exogenous insulin requirement, is also presented in Table 4 as baseline values vs. 8-week treatment. […] A reduction in exogenous insulin requirements is a measure of improved insulin sensitivity and glucose control.

[6] = Post-Treatment (8-week treatment)
[7] = 2 wk, rising dose 0.1 to 1 mg/kg
[8] = 8 wk, rising dose 0.1 to 1 mg/kg

Compound: Cc1cc(SCc2ccc(-c3ccc(C(F)(F)F)cc3)cc2)ccc1OCC(=O)O [Example 3, [2-Methyl-4-(4′-trifluoromethyl-biphenyl-4-ylmethylsulfanyl)-phenoxy]-acetic acid]
- EC50 [1]: < 300 nM
- EC50 [2]: 2000 to 5000 nM
- melting point: 140 to 141 °C
- lowered triglycerides relative to the control population [3]: 70%
- raised HDL-c relative to the control population [3]: 9%

Compound: Cc1cc(SCc2ccc(-c3ccc(Cl)c(C(F)(F)F)c3)cc2)ccc1OCC(=O)O [Example 6, [4-(4′-Chloro-3′-trifluoromethyl-biphenyl-4-ylmethylsulfanyl)-2-methyl-phenoxy]-acetic acid]
- lowered triglycerides relative to the control population [3]: 59%
- raised HDL-c relative to the control population [3]: 24%

Compound: Cc1cc(SCc2ccc(-c3ccc(C(F)(F)F)cn3)cc2)c2c(c1OCC(=O)O)CCCO2 [Example 36, {6-Methyl-8-[4-(5-trifluoromethyl-pyridine-2-yl)-benzylsulfanyl]-chroman-5-yloxy}-acetic acid]
- EC50 [1]: 2000 to 5000 nM
- EC50 [2]: < 300 nM
- melting point: 156 to 157 °C

Compound: Cc1cc(SCc2ccc(OCc3ccc(F)cc3)cc2)ccc1OCC(=O)O [Example 57, {4-[4-(4-Fluoro-benzyloxy)-benzylsulfanyl]-2-methyl-phenoxy}-acetic acid]
- EC50 [1]: 2000 to 5000 nM
- EC50 [2]: 1000 to 2000 nM
- melting point: 154 to 155 °C

Compound: Cc1cc(SCc2ccc(OCc3cc(Cl)ccc3Cl)cc2)ccc1OCC(=O)O [Example 59]
- EC50 [1]: 1000 to 2000 nM
- EC50 [2]: > 5000 nM
- melting point: 101 to 103 °C

Compound: O=C(O)COc1ccc(SCc2ccc(OCc3ccc(Cl)cc3Cl)cc2)c2c1CCC2 [Example 62, {7-[4-(2,4-Dichloro-benzyloxy)-benzylsulfanyl]-indan-4-yloxy}-acetic acid]
- EC50 [1]: 1000 to 2000 nM
- EC50 [2]: > 5000 nM
- melting point: 149 to 150 °C

Compound: O=C(O)COc1ccc(SCc2ccc(OCc3ccc(Cl)c(C(F)(F)F)c3)cc2)c2c1CCC2 [Example 73, {7-[4-(4-Chloro-3-trifluoromethyl-benzyloxy)-benzylsulfanyl]-indan-4-yloxy}-acetic acid]
- EC50 [1]: < 300 nM
- EC50 [2]: 2000 to 5000 nM
- melting point: 151 to 152 °C

Compound: O=C(O)COc1ccc(SCc2ccc(OCc3ccc(F)c(C(F)(F)F)c3)cc2)c2c1CCC2 [Example 74, {7-[4-(4-Fluoro-3-trifluoromethyl-benzyloxy)-benzylsulfanyl]-indan-4-yloxy}-acetic acid]
- EC50 [1]: < 300 nM
- EC50 [2]: 2000 to 5000 nM
- melting point: 116 to 117 °C

Compound: O=C(O)COc1ccc(SCc2cccc(OCc3ccc(C(F)(F)F)cc3)c2)c2c1CCC2 [Example 79, {7-[3-(4-Trifluoromethyl-benzyloxy)-benzylsulfanyl]-indan-4-yloxy}-acetic acid]
- EC50 [1]: 300 to 500 nM
- EC50 [2]: > 5000 nM
- melting point: 145 to 146 °C

Compound: O=C(O)COc1ccc(SCc2ccccc2OCc2ccc(C(F)(F)F)cc2)c2c1CCC2 [Example 81, {7-[2-(4-Trifluoromethyl-benzyloxy)-benzylsulfanyl]-indan-4-yloxy}-acetic acid]
- EC50 [1]: < 300 nM
- EC50 [2]: > 5000 nM
- melting point: 150 to 152 °C

Compound: Cc1cc(SCc2ccc(-c3ccc(C(F)(F)F)cn3)cc2)c2c(c1OCC(=O)O)CCO2 [Example 92, {5-Methyl-7-[4-(5-trifluoromethyl-pyridin-2-yl)-benzylsulfanyl]-2,3-dihydro-benzofuran-4-yxoly}-acetic acid]
- EC50 [1]: < 300 nM
- EC50 [2]: < 300 nM
- melting point: 155 to 157 °C

Compound: O=C(O)COc1ccc(SCc2cc(-c3ccc(Cl)cc3)on2)c2c1CCC2 [Example 97, {7-[5-(4-Chloro-phenyl)-isoxazol-3-ylmethylsulfanyl]-indan-4-yloxy}-acetic acid]
- EC50 [1]: 500 to 1000 nM
- EC50 [2]: > 5000 nM
- melting point: 157 to 159 °C

Compound: COc1cc(OCC(=O)O)c(C)cc1SCc1ccc(-c2ccc(C(F)(F)F)cc2)cc1 [[5-Methoxy-2-methyl-4-(4′-trifluoromethyl-biphenyl-4-ylmethylsulfanyl)-phenoxy]-acetic acid]
- Leptin (plasma, ELISA) [4, 6]: 5.73 ± 2.14 ng/mL
- Leptin (plasma, ELISA) ([4]; Pre-Treatment (baseline)): 7.33 ± 1.16 ng/mL
- effect on plasma leptin values ([4]; insulin resistant obese cynomolgus monkeys, treated vs control, baseline vs 8 weeks): lesser increase in plasma leptin values
- Insulin Resistant Monkey Mean Body Weight [4, 7]: 5.26 kg
- Insulin Resistant Monkey Mean Body Weight ([4]; 4 wk, rising dose 0.1 to 1 mg/kg): 5.04 kg
- Insulin Resistant Monkey Mean Body Weight ([4]; 6 wk, rising dose 0.1 to 1 mg/kg): 4.91 kg
- Insulin Resistant Monkey Mean Body Weight [4, 8]: 4.71 kg
- Insulin Resistant Monkey Mean Body Weight ([4]; Mean Baseline): 5.29 kg
- Insulin Resistant Monkey Mean Body Weight ([4]; −4 wk, before treatment): 5.32 kg
- Insulin Resistant Monkey Mean Body Weight ([4]; −7 wk, before treatment): 5.25 kg
- Exogenous Insulin Requirement [5, 6]: 18 ± 4 u/day
- Leptin (plasma, ELISA) [5, 6]: 10.89 ± 2.7 ng/mL
- Exogenous Insulin Requirement ([5]; Pre-Treatment (baseline)): 66 ± 16 u/day
- Leptin (plasma, ELISA) ([5]; Pre-Treatment (baseline)): 7.22 ± 0.93 ng/mL
- effect on plasma leptin values ([5]; diabetic obese cynomolgus monkeys, treated vs control, baseline vs 8 weeks): lesser increase in plasma leptin values
- Diabetic Monkey Mean Body Weight [5, 7]: 8.75 kg
- Diabetic Monkey Mean Body Weight ([5]; 5 wk, rising dose 0.1 to 1 mg/kg): 8.37 kg
- Diabetic Monkey Mean Body Weight ([5]; 7 wk, rising dose 0.1 to 1 mg/kg): 8.08 kg
- Diabetic Monkey Mean Body Weight [5, 8]: 7.8 kg
- Diabetic Monkey Mean Body Weight ([5]; Mean Baseline): 8.87 kg
- Diabetic Monkey Mean Body Weight ([5]; −4 wk, before treatment): 8.91 kg
- Diabetic Monkey Mean Body Weight ([5]; −7 wk, before treatment): 8.84 kg
